These results are taken from ChEMBL document CHEMBL3227988, “Synthesis and antiviral activities of arabinofuranosyl-5-ethylpyrimidine nucleosides. Selective antiherpes activity of 1-(beta-D-arabinofuranosyl)-5-ethyluracil” (J Med Chem, 1979).

Converted amounts (≈) assume the structure as drawn. The source made the active and inactive calls. No cut-off for these calls is given here.

For the first test, the system named is Vaccinia virus. The experiment in a line: Antiviral activity against Vaccinia virus infected in human skin fibroblast cells assessed as inhibition of virus-induced cytopathogenicity treated immediately after virus adsorption measured 2 to 3 days after virus infection. Format: functional. To be noted: Orthopoxvirus vaccinia.
As for `CCc1cn([C@@H]2O[C@H](CO)[C@@H](O)[C@@H]2O)c(=O)[nH]c1=O`, the MIC is > 200 µg/mL.

`CCc1cn([C@@H]2O[C@H](CO)[C@@H](O)[C@@H]2O)c(=O)nc1N`: the MIC is > 200 µg/mL.

In the case of `Nc1ccn([C@@H]2O[C@H](CO)[C@@H](O)[C@@H]2O)c(=O)n1` [CYTARABINE], the MIC amounted to 0.02 µg/mL (≈ 0.0822 µM).

With `Cc1cn([C@@H]2O[C@H](CO)[C@@H](O)[C@@H]2O)c(=O)[nH]c1=O`, the MIC is 2 µg/mL (≈ 7.75 µM).

For the compound `O=c1ccn([C@@H]2O[C@H](CO)[C@@H](O)[C@@H]2O)c(=O)[nH]1` [ARAURIDINE], the MIC was > 200 µg/mL.

The test system of the next test is Vaccinia virus. The experiment in a line: Antiviral activity against Vaccinia virus infected in human skin fibroblast cells assessed as inhibition of virus-induced cytopathogenicity at 200 ug/ml treated immediately after virus adsorption measured 2 to 3 days after virus infection. Format: functional, organism-based. To be noted: Orthopoxvirus vaccinia.
`CCc1cn([C@H]2O[C@H](CO)[C@@H](O)[C@@H]2O)c(=O)[nH]c1=O`: the inhibition entry is “inactive”.

For the compound `CCc1cn([C@H]2O[C@H](CO)[C@@H](O)[C@@H]2O)c(=O)nc1N`, the inhibition entry was “inactive”.
